{"source": "patent US20060165722A1", "about": "(priority 2005, published 2006)", "key": {"human macrophages": {"tested_on": "human macrophages", "test": "FACS analysis of human macrophages stimulated with AT1002", "format": "cell-based"}, "tetanus toxin": {"tested_on": "tetanus toxin", "set-up": "species or system mice", "settings": "mouse, in vivo"}, "C57BL/6 female mice": {"tested_on": "C57BL/6 female mice", "settings": "mouse, in vivo"}, "human monocytes": {"tested_on": "human monocytes", "test": "FACS analysis of human monocytes stimulated with AT1002", "format": "cell-based", "settings": "18 hours"}, "[1]": {"settings": "AT1002 20 micrograms/ml and 1 microgram/ml"}}, "note": "“Also recorded” adds a separate entry of the source."}
{"substance": "FCIGRL [AT1002]", "values": [{"measurement": "expression of CD40 on macrophages", "setting": "human macrophages; 18 hours", "value": "upregulates"}, {"measurement": "membrane expression of CD86 on macrophages", "setting": "human macrophages; 18 hours", "value": "strongly upregulates"}, {"measurement": "membrane expression of HLA-DR on macrophages", "setting": "human macrophages; 18 hours", "value": "strongly upregulates"}, {"measurement": "membrane expression of HLA-I on macrophages", "setting": "human macrophages; 18 hours", "value": "strongly upregulates"}, {"measurement": "expression of CD80 on macrophages", "setting": "human macrophages; 18 hours, not reported in the figure", "value": "also upregulated"}, {"measurement": "upregulation of HLA-I and HLA-DR molecules compared with LPS", "setting": "human macrophages; macrophages, LPS positive control", "value": "more efficient than LPS"}, {"measurement": "protection against tetanus toxin challenge (paralysis and death)", "setting": "tetanus toxin", "value": "all protected"}, {"measurement": "geometric mean titers of anti-TT IgA in vaginal secretions", "setting": "C57BL/6 female mice", "value": "induces IgA against the co-administered antigen in a mucosal district far from the site of immunization"}, {"measurement": "geometric mean titers of anti-TT serum IgA", "setting": "C57BL/6 female mice", "value": "induces serum IgA against the co-administered antigen"}, {"measurement": "geometric mean titers of anti-TT serum IgG", "setting": "C57BL/6 female mice", "value": "higher as compared to those of animals immunized with TT alone; also recorded: higher than those observed after four doses"}, {"measurement": "relatively most effective AT1002 dose (anti-TT serum IgG)", "setting": "C57BL/6 female mice", "value": 30, "unit": "nmol"}, {"measurement": "expression of CD80 (B7-1) on monocytes", "setting": "human monocytes", "value": "not upregulated"}, {"measurement": "expression of CD86 (B7.2) on monocytes", "setting": "human monocytes", "value": "not upregulated"}, {"measurement": "membrane expression of HLA-DR on monocytes", "setting": "human monocytes; [1]", "value": "upregulates"}, {"measurement": "membrane expression of HLA-I on monocytes", "setting": "human monocytes; [1]", "value": "upregulates"}]}
{"substance": "Tetanus toxoid [TT alone]", "values": [{"measurement": "range of anti-TT IgG titer", "setting": "tetanus toxin", "value": "256-4,096"}]}
